The text below walks through data of PMC5508973 (ChemMedChem, 2017).

In series [1] the test system is primary chronic lymphocytic leukemia (CLL) cells. Format: cell-based, Human. The following applies: treatment with 50 μM.
The next series has as its system HeLa. Kind of series: cells. Format: cell-based. The conditions noted are these: Homo sapiens, 24 h.
The test system of the next series is K562/ADR. Put plainly: cells. The following applies: Homo sapiens, 24 h. Format: cell-based.
Another series relates to U937. Kind of series: cells. The format is cell-based. The following applies: Homo sapiens, U-937, 24 h.
The subject of a further series is K562. Kind of series: cells. Format: cell-based. The conditions noted are these: Homo sapiens, K562, 24 h.
For a further series, the system named is LO2. Kind of series: cells. The format is cell-based. The conditions noted are these: Homo sapiens, L02, 24 h.
Another series concerns MM.1R. Put plainly: cells. Format: cell-based. The following applies: Homo sapiens, 24 h.
The test system of the next series is MM.1S. Put plainly: cells. The format is cell-based. The conditions noted are these: Homo sapiens, MM1.S, 24 h.
Series [2] concerns 17.7 kb segment of nDNA at the b-globin gene and 8.9 kb fragment of mtDNA. Kind of series: DNA damage by PCR amplification of nDNA and mtDNA. Format: cell-based. The conditions noted are these: PCR amplification after cell treatment.
The test system of series [3] is peripheral blood mononuclear cells (PBMCs) from normal healthy donors. The conditions noted are these: treatment with 50 μM.
In the next series the test system is NIH3T3. Put plainly: cells. The format is cell-based. The following applies: Mus musculus, NIH3T3, 24 h.
Series [4] deals with CBL-resistant K562 cell line. Format: cell-based, Human. The conditions noted are these: K562, 24-h incubation, Annexin-V.

In turn, `O=C(O)CCCc1ccc(N(CCCl)CCCl)cc1` [CBL, chlorambucil] displayed a CLL cells killed in series [1] of 32.3%. The IC50 with HeLa is 321 ± 33.2 µM; with K562/ADR, more than 1000 µM; with U937 it was 45.7 ± 3.71 µM; in the series with K562, 417 ± 27.9 µM; in the series with LO2, more than 600 µM; with MM.1R it was 236 ± 16.9 µM. Moreover, the values for the IC50 in the series on MM.1S and in the series with NIH3T3 were 47.4 ± 5.08 µM and more than 600 µM, respectively. Also, the “DNA damage in nuclear and mitochondrial genome” value in [2] is “primarily damaged nDNA with very few mitochondrial lesions”. In series [3], this compound yielded a PBMCs killed of 11%. Also, the apoptotic cell population in [4] was determined as 11.24%.
